Data published in patent US20170081357A1, “[…] ACTIVE 17-NITROGEN SUBSTITUTED ESTRATREINTHIAZOLE DERIVATIVES AS INHIBITORS OF 17.BETA-HYDROXYSTEROID DEHYDROGENASE” (FORENDO PHARMA LTD, priority 2013, published 2017).

Key:
[1] = Metabolic stability assay, human liver microsome and homogenate incubations; format: in vitro ADME; settings: human liver homogenate or microsomes, LC/PDA/TOF-MS
Experimental: The in vitro metabolic stability of the compounds of the invention was determined for exemplified compounds using human liver microsome and homogenate incubations. The incubation time points used with or without appropriate cofactors were 0 min and 60 min. Samples were collected at both time points and substrates were detected using LC/PDA/TOF-MS. In vitro metabolic stability (% remaining after 60 min in human liver homogenate or microsomes) of the compounds were calculated and the results are summarized in Table 3.

[2] = target: T1, recombinant human 17β-HSD2 (Homo sapiens, UniProt P37059); experiment: Inhibition of recombinant human 17β-HSD2 (conversion of 3H-estradiol to estrone, HPLC); format: biochemical; settings: inhibitor 1 μM; 50 nM estradiol, 1 mM NADH, 30 min at RT
T1 construct: made in house; host or cells: Sd9 (Sf9) insect cells, baculovirus (Bac to Bac Expression System); fractionated cell extract
T1 sequence (P37059 1-387): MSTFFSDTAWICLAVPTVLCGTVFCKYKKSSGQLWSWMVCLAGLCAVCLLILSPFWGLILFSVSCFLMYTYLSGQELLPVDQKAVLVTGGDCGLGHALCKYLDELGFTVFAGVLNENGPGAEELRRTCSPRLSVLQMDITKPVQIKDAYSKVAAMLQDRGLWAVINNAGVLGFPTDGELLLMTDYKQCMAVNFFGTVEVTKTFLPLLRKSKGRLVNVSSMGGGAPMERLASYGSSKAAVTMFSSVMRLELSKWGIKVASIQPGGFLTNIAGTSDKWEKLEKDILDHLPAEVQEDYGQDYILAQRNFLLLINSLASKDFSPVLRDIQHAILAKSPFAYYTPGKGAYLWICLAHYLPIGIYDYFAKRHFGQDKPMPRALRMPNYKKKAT
Experimental: 17β-HSD2 production and isolation: Similarly to 17β-HSD1 the Recombinant baculovirus was generated by the “Bac to Bac Expression System” (Invitrogen). Recombinant bacmid was transfected to Sd9 insect cells using “Cellfectin Reagent” (Invitrogen). 60 h later cells were harvested and supernatant were fractionated by the following protocol: • cells were dissolved into 40 ml of A-buffer (40 mM TRIS, pH8.0, 20% glycerol, 20 μM NAD, 0.4 mM PMSF, 150 mM NaCl, 0.5% dodecyl-β-maltoside+protease inhibitor cocktail) • cells were sonicated • lysate was incubated on ice for 15 min • lysate was centrifuged 5000 rpm 15 min, +4° C. • centrifugation of the supernatant 180 000 g 30 min, +4° C. • pellet was dissolved into 8 ml of A-buffer • not resuspended material was removed by centrifugation 5000 rpm 15 min, +4° C. • the clear supernatant was divided into 100 μl aliquots and were stored frozen until determination of enzymatic activity.
The amount of 17β-HSD2 was analysed by immunoblotting and total protein concentration of each extract batch was determined.
Assay—Inhibition of recombinant human 17β-HSD2: Recombinant protein (4 μg/ml) was incubated in 20 mM KH2PO4 pH 8.5 with 50 nM estradiol (including 800 000 cpm/ml of ^3H-estradiol) and 1 mM NADH for 30 min at RT, in the presence of the potential inhibitor at concentrations 1 μM or 0.1 μM. Inhibitor stock solutions were prepared in DMSO. Final concentration of DMSO was adjusted to 1% in all samples. The enzyme reaction was stopped by addition of 10% trichloroacetic acid (final concentration). Samples were centrifuged in a microtiter plate at 4000 rpm for 10 min. Supernatants were applied to reverse phase HPLC on a Waters Symmetry C18 column, equipped with a Waters Sentry Guard column. Isocratic HPLC runs were performed at RT at a flow rate of 1 ml/min in acetonitrile:water 48:52 as running solvent. Radioactivity was monitored in the eluate by a Packard Flow Scintillation Analyzer. Total radioactivity for estrone and estradiol were determined in each sample and percent conversion of estradiol to estrone was calculated according to the following formula:
(§1) Percent inhibition was calculated flowingly: % inhibition=100−% conversion

[3] = target: T2, recombinant human 17β-HSD1 (Homo sapiens, UniProt P14061); experiment: Inhibition of recombinant human 17β-HSD1 (conversion of 3H-estrone to estradiol, HPLC); format: biochemical; settings: inhibitor 1 μM; 30 nM estrone, 1 mM NADPH, 30 min at RT; read-out: 17β-HDS1 Inhibition % at 1 μM
T2 construct: made in house; host or cells: Sd9 (Sf9) insect cells, baculovirus (Bac to Bac Expression System); microsomal fraction
T2 sequence (P14061 1-328): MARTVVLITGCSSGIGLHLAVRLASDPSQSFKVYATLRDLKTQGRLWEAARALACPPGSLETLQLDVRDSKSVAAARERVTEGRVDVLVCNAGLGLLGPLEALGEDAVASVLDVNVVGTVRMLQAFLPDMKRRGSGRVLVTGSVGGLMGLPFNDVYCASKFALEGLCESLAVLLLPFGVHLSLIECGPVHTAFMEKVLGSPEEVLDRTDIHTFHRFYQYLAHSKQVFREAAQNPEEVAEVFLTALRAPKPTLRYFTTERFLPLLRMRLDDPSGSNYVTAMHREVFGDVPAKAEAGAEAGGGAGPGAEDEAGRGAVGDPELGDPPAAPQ
Experimental: 17β-HSD1 production and isolation: Recombinant baculovirus was generated by the “Bac to Bac Expression System” (Invitrogen). Recombinant bacmid was transfected to Sd9 insect cells using “Cellfectin Reagent” (Invitrogen). 60 h later cells were harvested; the microsomal fraction was isolated as described by Puranen, T. J., Poutanen, M. H., Peltoketo, H. E., Vihko, P. T. and Vihko, R. K. (1994) Site-directed mutagenesis of the putative active site of human 17 β-hydroxysteroid dehydrogenase type 1. Biochem. J. 304: 289-293. Aliquots were stored frozen until determination of enzymatic activity.
Assay—Inhibition of recombinant human 17β-HSD1: Recombinant protein (1 μg/ml) was incubated in 20 mM KH2PO4 pH 7.4 with 30 nM estrone (including 800 000 cpm/ml of ^3H-estrone) and 1 mM NADPH for 30 min at RT, in the presence of the potential inhibitor at concentrations 1 μM or 0.1 μM. Inhibitor stock solutions were prepared in DMSO. Final concentration of DMSO was adjusted to 1% in all samples. The enzyme reaction was stopped by addition of 10% trichloroacetic acid (final concentration). Samples were centrifuged in a microtiter plate at 4000 rpm for 10 min. Supernatants were applied to reverse phase HPLC on a Waters Symmetry C18 column, equipped with a Waters Sentry Guard column. Isocratic HPLC runs were performed at RT at a flow rate of 1 ml/min in acetonitrile:water 48:52 as running solvent. Radioactivity was monitored in the eluate by a Packard Flow Scintillation Analyzer. Total radioactivity for estrone and estradiol were determined in each sample and percent conversion of estrone to estradiol was calculated according to the following formula:
as §1

Compound | In vitro metabolic stability, % remaining after 60 min [1] [%] | inhibition at 1 µM [2] [%] | inhibition at 1 µM [3] [%]
COc1ccc2c(c1)CCC1C2CC[C@]2(C)c3n[nH]cc3[C@@H](CCC(=O)Nc3ncc(C)s3)C12 (stereo partly drawn) [Compound 50, 3-((6aS,10S)-2-Methoxy-6a-methyl-4b,5,6,6a,8,10,10a,10b,11,12-decehydro-7,8-diaza-pentaleno[2,1-1]phenanthren-10-yl}-N-(5-methylthiazol-2-yl)propanamide] | 88 | 0 | 78
Cc1cnc(NC(=O)CC[C@@H]2c3c[nH]nc3[C@@]3(C)CCC4c5ccc(O)cc5CCC4C23)s1 (stereo partly drawn) [Compound 51, 3-((6aS,10S)-2-Hydroxy-6a-methyl-4b,5,6,6a,8,10,10a,10b,11,12-decehydro-7,8-diaza-pentaleno[2,1-1]phenanthren-10-yl}-N-(5-methylthiazol-2-yl)propanamide] | 46 | 15 | 82
Cc1cnc(NC(=O)CC[C@@H]2c3c[nH]nc3[C@@]3(C)CCC4c5cc(C(C)(C)C)c(O)cc5CCC4C23)s1 (stereo partly drawn) [Compound 53, 3-((6aS,10S)-3-tert-Butyl-2-hydroxy-6a-methyl-4b,5,6,6a,8,10,10a,10b,11,12-decehydro-7,8-diaza-pentaleno[2,1-1]phenanthren-10-yl}-N-(5-methylthiazol-2-yl)propanamide] | 100 | 13 | 76
Cc1cnc(NC(=O)CC[C@@H]2c3c[nH]nc3[C@@]3(C)CCC4c5cc([N+](=O)[O-])c(O)cc5CCC4C23)s1 (stereo partly drawn) [Compound 55, 3-((6aS,10S)-2-Hydroxy-6a-methyl-2-nitro-4b,5,6,6a,8,10,10a,10b,11,12-decehydro-7,8-diaza-pentaleno[2,1-1]phenanthren-10-yl}-N-(5-methylthiazol-2-yl)propanamide] | 86 | 7 | 69
Cc1cnc(NC(=O)CC[C@@H]2C/C(=N\O)[C@@]3(C)CCC4c5ccccc5CCC4C23)s1 (stereo partly drawn) [Compound 59, 3-{(13S,15R)-17-[(E)-hydroxyimino]-13-methyl-7,8,9,11,12,13,14,15,16,17-decahydro-6H-cyclopenta[a]phenanthren-15-yl}-N-(5-methylthiazol-2-yl)propanamide] | 100 | 2 | 93
Cc1cnc(NC(=O)CC[C@@H]2C/C(=N\O)[C@@]3(C)CCC4c5cc(Br)c(O)c(Br)c5CCC4C23)s1 (stereo partly drawn) [Compound 64, 3-{(13S,15R)-2,4-Dibromo-3-hydroxy-17-[(E)-hydroxyimino]-13-methyl-7,8,9,11,12,13,14,15,16,17-decahydro-6H-cyclopenta[a]phenanthren-15-yl}-N-(5-methylthiazol-2-yl)propanamide] | 95 |  | 
Cc1cnc(NC(=O)CC[C@@H]2C(=C\O)/C(=N\O)[C@@]3(C)CCC4c5cc(Br)c(O)c(Br)c5CCC4C23)s1 (stereo partly drawn) [Compound 70, 3-{(13S,15S)-2,4-Dibromo-3-hydroxy-17-[(Z)-hydroxyimino]-16-[1-hydroxy-meth-(E)-ylidene]-13-methyl-7,8,9,11,12,13,14,15,16,17-decahydro-6H-cyclopenta[a]phenanthren-15-yl}-N-(5-methylthiazol-2-yl)propanamide] | 97 | 8 | 94
CO/N=C1\C[C@@H](CCC(=O)Nc2ncc(C)s2)C2C3CCc4cc(O)ccc4C3CC[C@]12C (stereo partly drawn) [Compound 73, 3-{(13S,15R)-3-Hydroxy-17-[(E)-methoxyimino]-13-methyl-7,8,9,11,12,13,14,15,16,17-decahydro-6H-cyclopenta[a]phenanthren-15-yl}-N-(5-methylthiazol-2-yl)propanamide] | 73 |  | 
CO/N=C1\C[C@@H](CCC(=O)Nc2ncc(C)s2)C2C3CCc4cc(O)c(C(C)(C)C)cc4C3CC[C@]12C (stereo partly drawn) [Compound 76, 3-{(13S,15R)-2-tert-Butyl-3-hydroxy-17-[(E)-methoxyimino]-13-methyl-7,8,9,11,12,13,14,15,16,17-decahydro-6H-cyclopenta[a]phenanthren-15-yl}-N-(5-methylthiazol-2-yl)propanamide] | 100 |  | 
CO/N=C1\C[C@@H](CCC(=O)Nc2ncc(C)s2)C2C3CCc4cc(O)c(Br)cc4C3CC[C@]12C (stereo partly drawn) [Compound 85, 3-{(13S,15R)-2-Bromo-3-hydroxy-17-[(E)-methoxyimino]-13-methyl-7,8,9,11,12,13,14,15,16,17-decahydro-6H-cyclopenta[a]phenanthren-15-yl}-N-(5-methylthiazol-2-yl)-propanamide] | 34 |  | 
CO/N=C1\C[C@@H](CCC(=O)Nc2ncc(C)s2)C2C3CCc4cc(O)c(Cl)cc4C3CC[C@]12C (stereo partly drawn) [Compound 88, 3-{(13S,15R)-2-Chloro-3-hydroxy-17-[(E)-methoxyimino]-13-methyl-7,8,9,11,12,13,14,15,16,17-decahydro-6H-cyclopenta[a]phenanthren-15-yl}-N-(5-methylthiazol-2-yl)propanamide] | 94 |  | 
CO/N=C1\C[C@@H](CCC(=O)Nc2ncc(C)s2)C2C3CCc4cc(O)c(F)cc4C3CC[C@]12C (stereo partly drawn) [Compound 91, 3-{(13S,15R)-2-Fluoro-3-hydroxy-17-[(E)-methoxyimino]-13-methyl-7,8,9,11,12,13,14,15,16,17-decahydro-6H-cyclopenta[a]phenanthren-15-yl}-N-(5-methylthiazol-2-yl)propanamide] | 92 | 5 | 94
